From paper PMC6136660 (Steroids, 2018)
Where two headings read alike, the source gives them in different places.

How the values were obtained:
[1] = system: blood glucose (insulin resistance biomarker); assay: Blood glucose / fasting insulin, MAD; type: in vivo, human; conditions: for Blood glucose: mean±SEM
Method: All biomarkers were analyzed using standard immunoassays by PRA.
Glucocorticoids were originally named as such due to their potent and acute effects on glucose metabolism, where liver and muscle pathways for insulin signaling are rapidly and profoundly affected, creating a state of insulin resistance. […] Fasting insulin and glucose levels were assessed in all dose groups in the vamorolone Phase 1 SAD and MAD.

[2] = Phase 1 single ascending dose (SAD) pharmacokinetics, fasted; type: in vivo, human; conditions: for Vd/F: read-out: Vz/F; for k el: read-out: λz (converted)
Method: This clinical trial was a randomized, double-blind, placebo controlled single ascending (SAD) and multiple ascending (MAD) study to evaluate the safety, tolerability, and pharmacokinetics of vamorolone in health adult subjects. The study protocol and its amendments were reviewed and approved by an Institutional Review Board. It was conducted in accordance with the principles of the Declaration of Helsinki in place at the time of study conduct and in compliance with the International Council on Harmonisation (ICH) E6 Guideline for Good Clinical Practice.
In the SAD part of the study, 7 cohorts were to be enrolled. Eight subjects were assigned to each of Cohorts 1 to 5 and 7 and received a single oral dose of vamorolone (planned as 0.1 mg/kg, 0.3 mg/kg, 1.0 mg/kg, 3.0 mg/kg, 8.0 mg/kg, and 20.0 mg/kg, respectively) or placebo under fasted conditions. Six subjects were assigned to Cohort 6 and were administered a single oral dose of 8.0 mg/kg vamorolone within 30 min of beginning a high fat/high calorie meal.
Subjects in Cohorts 1 through 5 and 7 were randomized to receive vamorolone or placebo in a 3:1 ratio (6 subjects received vamorolone, and 2 subjects received placebo) sequentially. In Cohort 1, 3 sentinel subjects were administered vamorolone or placebo in a 2:1 ratio. Following a review of sentinel safety and tolerability data (including reported adverse events [AEs], clinical laboratory tests, vital signs, and electrocardiograms [ECGs]), the remaining 5 subjects were randomized to receive vamorolone or placebo in a 4:1 ratio and dosed no earlier than 48 h after sentinel dosing. In Cohorts 2 to 5, and 7, subjects were administered vamorolone or placebo in a 3:1 ratio. Once Cohort 5 was completed and safety data had been reviewed, subjects in Cohort 6 were administered a single oral dose of 8.0 mg/kg vamorolone within 30 min of beginning a standard high fat/high calorie meal.
The initial starting dose for the vamorolone SAD study was chosen based on 10% of the NOAEL in the most sensitive species (mouse) (0.1 mg/kg). Doses were then escalated by 3-fold increments for 6 dose groups (0.1, 0.3, 1.0, 3.0, 9.0, 20.0 mg/kg). Eight adult male volunteers were studied in each dose group (6 drug-treated, 2 placebo).

[3] = male, human, plasma, single oral 0.1 mg/kg, fasted, geometric mean (%CV)
[4] = male, human, plasma, single oral 0.3 mg/kg, fasted, geometric mean (%CV)
[5] = male, human, plasma, single oral 1 mg/kg, fasted, geometric mean (%CV)
[6] = male, human, plasma, single oral 3 mg/kg, fasted, geometric mean (%CV)
[7] = male, human, plasma, single oral 8 mg/kg, fasted, geometric mean (%CV)
[8] = male, human, plasma, single oral 20 mg/kg, fasted, geometric mean (%CV)

Work on `C[C@@H]1C[C@H]2[C@@H]3CCC4=CC(=O)C=C[C@]4(C)C3=CC[C@]2(C)[C@@]1(O)C(=O)CO` [vamorolone] yielded a Blood glucose ([1]; MAD 1.0 mg/kg, Day 1 (predose), baseline) of 86 ± 1 md/dL, a Blood glucose ([1]; MAD 1.0 mg/kg, Day 2 predose) of 87 ± 2 md/dL and a Blood glucose ([1]; MAD 1.0 mg/kg, Day 3 predose) of 86 ± 2 md/dL. For the same compound, the Blood glucose ([1]; MAD 1.0 mg/kg, Day 7 predose) was 84 ± 2 md/dL, the Blood glucose ([1]; MAD 1.0 mg/kg, Day 12 predose) was 83 ± 1 md/dL and the Blood glucose ([1]; MAD 1.0 mg/kg, Day 14 (predose)) was 84 ± 1 md/dL. The Blood glucose ([1]; MAD 1.0 mg/kg, Day 17 (3 days after last dose)) was 86 ± 1 md/dL, the Blood glucose ([1]; MAD 1.0 mg/kg, Day 21 follow-up) was 90 ± 3 md/dL and the Blood glucose ([1]; MAD 1.0 mg/kg, Day -1, baseline) was 90 ± 2 md/dL. The Blood glucose ([1]; MAD 1.0 mg/kg, Screening, baseline) was 92 ± 1 md/dL, the Blood glucose ([1]; MAD 3.0 mg/kg, Day 1 (predose), baseline) was 87 ± 1 md/dL and the Blood glucose ([1]; MAD 3.0 mg/kg, Day 2 predose) was 87 ± 1 md/dL. It also gave a Blood glucose ([1]; MAD 3.0 mg/kg, Day 3 predose) of 84 ± 2 md/dL, a Blood glucose ([1]; MAD 3.0 mg/kg, Day 7 predose) of 82 ± 1 md/dL and a Blood glucose ([1]; MAD 3.0 mg/kg, Day 12 predose) of 83.1 ± 1.4 md/dL. For the same compound, the Blood glucose ([1]; MAD 3.0 mg/kg, Day 14 (predose)) was 81 ± 2 md/dL, the Blood glucose ([1]; MAD 3.0 mg/kg, Day 17 (3 days after last dose)) was 84 ± 1 md/dL and the Blood glucose ([1]; MAD 3.0 mg/kg, Day 21 follow-up) was 91 ± 2 md/dL. It also gave a Blood glucose ([1]; MAD 3.0 mg/kg, Day -1, baseline) of 90 ± 1 md/dL, a Blood glucose ([1]; MAD 3.0 mg/kg, Screening, baseline) of 90.1 ± 1.5 md/dL and a Blood glucose ([1]; MAD 9.0 mg/kg, Day 1 (predose), baseline) of 89 ± 2 md/dL. For the same compound, the Blood glucose ([1]; MAD 9.0 mg/kg, Day 2 predose) was 87 ± 1 md/dL, the Blood glucose ([1]; MAD 9.0 mg/kg, Day 3 predose) was 88 ± 2 md/dL and the Blood glucose ([1]; MAD 9.0 mg/kg, Day 7 predose) was 87 ± 2 md/dL. For the same compound, the Blood glucose ([1]; MAD 9.0 mg/kg, Day 12 predose) was 84 ± 2 md/dL, the Blood glucose ([1]; MAD 9.0 mg/kg, Day 14 (predose)) was 84 ± 2 md/dL and the Blood glucose ([1]; MAD 9.0 mg/kg, Day 17 (3 days after last dose)) was 85 ± 2 md/dL. The Blood glucose ([1]; MAD 9.0 mg/kg, Day 21 follow-up) was 88 ± 2 md/dL, the Blood glucose ([1]; MAD 9.0 mg/kg, Day -1, baseline) was 89 ± 1 md/dL and the Blood glucose ([1]; MAD 9.0 mg/kg, Screening, baseline) was 89 ± 3 md/dL. The Blood glucose ([1]; MAD 20.0 mg/kg, Day 1 (predose), baseline) was 87 ± 1 md/dL, the Blood glucose ([1]; MAD 20.0 mg/kg, Day 2 predose) was 84 ± 1 md/dL and the Blood glucose ([1]; MAD 20.0 mg/kg, Day 3 predose) was 83 ± 1 md/dL. For the same compound, the Blood glucose ([1]; MAD 20.0 mg/kg, Day 7 predose) was 82 ± 1 md/dL, the Blood glucose ([1]; MAD 20.0 mg/kg, Day 12 predose) was 80 ± 2 md/dL and the Blood glucose ([1]; MAD 20.0 mg/kg, Day 14 (predose)) was 80 ± 2 md/dL. It also gave a Blood glucose ([1]; MAD 20.0 mg/kg, Day 17 (3 days after last dose)) of 81 ± 2 md/dL, a Blood glucose ([1]; MAD 20.0 mg/kg, Day 21 follow-up) of 91 ± 3 md/dL and a Blood glucose ([1]; MAD 20.0 mg/kg, Day -1, baseline) of 89 ± 1 md/dL. The Blood glucose ([1]; MAD 20.0 mg/kg, Screening, baseline) was 90 ± 3 md/dL, the “fasting insulin and glucose levels vs placebo” value ([1]; all dose groups SAD and MAD, any time point) was “did not differ from placebo” and the “slope of log plot of AUC(inf) vs dose” value ([2]; SAD 0.1-20 mg/kg) was about 1.0. The “slope of log plot of Cmax vs dose” value ([2]; SAD 0.1-20 mg/kg) was under 1.0, the CL/F ([2]; male, human, plasma, oral, across single 0.1 to 20 mg/kg doses, fasted, read-out: CL/F, range of geometric mean values) was 1.76 to 2.31 L/h/kg and the half-life ([2]; male, human, plasma, oral, healthy subjects, approximate overall, read-out: half-life (converted)) was about 3 h. The AUC(0-inf) [2, 3] was 0.0495 µg·h/mL, the AUC(0-t) [2, 3] was 0.0419 µg·h/mL and the Cmax [2, 3] was 0.0131 µg/mL. The CL/F ([2]; male, human, plasma, single oral 0.1 mg/kg, fasted, geometric mean (%CV), read-out: CL/F (converted)) was 2.02 L/h/kg, the Vd/F [2, 3] was 4.98 L/kg and the half-life ([2]; male, human, plasma, single oral 0.1 mg/kg, fasted, geometric mean (%CV), read-out: t½ (converted)) was 1.71 h. The k el [2, 3] was 0.000113 s⁻¹, the Tmax ([2]; male, human, plasma, single oral 0.1 mg/kg, fasted, median, read-out: Tmax) was 1.5 h and the AUC(0-inf) [2, 4] was 0.17 µg·h/mL. The AUC(0-t) [2, 4] was 0.161 µg·h/mL, the Cmax [2, 4] was 0.0508 µg/mL and the CL/F ([2]; male, human, plasma, single oral 0.3 mg/kg, fasted, geometric mean (%CV), read-out: CL/F (converted)) was 1.76 L/h/kg. It also gave a Vd/F [2, 4] of 4.07 L/kg, a half-life ([2]; male, human, plasma, single oral 0.3 mg/kg, fasted, geometric mean (%CV), read-out: t½ (converted)) of 1.6 h and a k el [2, 4] of 0.00012 s⁻¹. The Tmax ([2]; male, human, plasma, single oral 0.3 mg/kg, fasted, median, read-out: Tmax) was 1.5 h, the AUC(0-inf) [2, 5] was 0.5 µg·h/mL and the AUC(0-t) [2, 5] was 0.486 µg·h/mL. The Cmax [2, 5] was 0.122 µg/mL, the CL/F ([2]; male, human, plasma, single oral 1 mg/kg, fasted, geometric mean (%CV), read-out: CL/F (converted)) was 2 L/h/kg and the Vd/F [2, 5] was 5.22 L/kg. For the same compound, the half-life ([2]; male, human, plasma, single oral 1 mg/kg, fasted, geometric mean (%CV), read-out: t½ (converted)) was 1.81 h, the k el [2, 5] was 0.000106 s⁻¹ and the Tmax ([2]; male, human, plasma, single oral 1 mg/kg, fasted, median, read-out: Tmax) was 1.75 h. For the same compound, the AUC(0-inf) [2, 6] was 1.6 µg·h/mL, the AUC(0-t) [2, 6] was 1.58 µg·h/mL and the Cmax [2, 6] was 0.305 µg/mL. For the same compound, the CL/F ([2]; male, human, plasma, single oral 3 mg/kg, fasted, geometric mean (%CV), read-out: CL/F (converted)) was 1.88 L/h/kg, the Vd/F [2, 6] was 6.76 L/kg and the half-life ([2]; male, human, plasma, single oral 3 mg/kg, fasted, geometric mean (%CV), read-out: t½ (converted)) was 2.5 h. For the same compound, the k el [2, 6] was 7.7e-05 s⁻¹, the Tmax ([2]; male, human, plasma, single oral 3 mg/kg, fasted, median, read-out: Tmax) was 1.75 h and the AUC(0-inf) [2, 7] was 3.6 µg·h/mL. The AUC(0-t) [2, 7] was 4 µg·h/mL, the Cmax [2, 7] was 0.718 µg/mL and the CL/F ([2]; male, human, plasma, single oral 8 mg/kg, fasted, geometric mean (%CV), read-out: CL/F (converted)) was 2.22 L/h/kg. It also gave a Vd/F [2, 7] of 10.4 L/kg, a half-life ([2]; male, human, plasma, single oral 8 mg/kg, fasted, geometric mean (%CV), read-out: t½ (converted)) of 3.25 h and a k el [2, 7] of 5.93e-05 s⁻¹. For the same compound, the Tmax ([2]; male, human, plasma, single oral 8 mg/kg, fasted, median, read-out: Tmax) was 1.78 h, the AUC(0-inf) [2, 8] was 8.65 µg·h/mL and the AUC(0-t) [2, 8] was 8.54 µg·h/mL. It also gave a Cmax [2, 8] of 1.65 µg/mL, a CL/F ([2]; male, human, plasma, single oral 20 mg/kg, fasted, geometric mean (%CV), read-out: CL/F (converted)) of 2.31 L/h/kg and a Vd/F [2, 8] of 14.2 L/kg. It also gave a half-life ([2]; male, human, plasma, single oral 20 mg/kg, fasted, geometric mean (%CV), read-out: t½ (converted)) of 4.26 h, a k el [2, 8] of 4.52e-05 s⁻¹ and a Tmax ([2]; male, human, plasma, single oral 20 mg/kg, fasted, median, read-out: Tmax) of 1.5 h. For the same compound, the Tmax ([2]; male, human, serum, oral suspension formulation (4% vamorolone by weight), read-out: time of peak serum concentrations) was about 3 h, the CL/F ([2]; single oral 0.1 mg/kg, fasted, geometric mean (%CV)) was 168 (20.8) (6) L/h and the CL/F ([2]; single oral 0.3 mg/kg, fasted, geometric mean (%CV)) was 142 (14.4) (6) L/h. For the same compound, the CL/F ([2]; single oral 1 mg/kg, fasted, geometric mean (%CV)) was 165 (12.0) (6) L/h, the CL/F ([2]; single oral 3 mg/kg, fasted, geometric mean (%CV)) was 152 (18.5) (6) L/h and the CL/F ([2]; single oral 8 mg/kg, fasted, geometric mean (%CV)) was 196 (57.6) (4) L/h. For the same compound, the CL/F ([2]; single oral 20 mg/kg, fasted, geometric mean (%CV)) was 180 (29.8) (4) L/h.
